Results: ChEMBL document CHEMBL5360545, “Multitargeted drug design strategy for discovery of short-peptide-based HIV-1 entry inhibitors with high potency” (Eur J Med Chem, 2023)
Active and inactive are the calls of the source. The rule behind the calls is not given here. Side chains are listed from the residue outwards. Peptide text beside a SMILES is read from it. * marks the point of attachment. PEG24 = NCCOCCOCCOCCOCCOCCOCCOCCOCCOCCOCCOCCOCCOCCOCCOCCOCCOCCOCCOCCOCCOCCOCCOCCOCCC(=O)O; X2 = CC(=O)N1CCC(C(=O)N(CCCN2C3CCC2CC(NS(=O)(=O)c2ccc(C(=O)*)cc2)C3)c2ccc(C)c(Cl)c2)CC1; X3 = Cc1ccc(N(CCCN2CCN(Cc3ccc(F)cc3)CC2)C(=O)C2CCN(C(=O)COCC(=O)*)CC2)cc1Cl; X1 = CC(=O)N1CCC(C(=O)N(CCCN2CCC(Cc3ccc(C(=O)*)cc3)CC2)c2ccc(C)c(Cl)c2)CC1; PEG12 = NCCOCCOCCOCCOCCOCCOCCOCCOCCOCCOCCOCCOCCC(=O)O; PEG4 = NCCOCCOCCOCCOCCC(=O)O

Experiments:
[1] = Proteolytic stability in rat liver assessed as parent compound remaining incubated for 4 hrs by RP-UHPLC analysis; assay type: ADME, tissue-based; conditions: read-out: Stability
[2] = test system: Human immunodeficiency virus 1; assay: Antiviral activity against HIV-1 clinical isolate X4-92UG024 infected in human CEMx174 5.25M7 cells assessed as reduction in p24 antigen level measured after 4 days by ELISA; assay type: functional, organism-based; conditions: Human immunodeficiency virus 1, clinical isolate X4-92UG024, CEMx174 5.25M7, 96 h
[3] = test system: Human immunodeficiency virus 1; assay: Antiviral activity against HIV-1 clinical isolate 97 TH-NP1525 infected in human CEMx174 5.25M7 cells assessed as reduction in p24 antigen level measured after 4 days by ELISA; assay type: functional, organism-based; conditions: Human immunodeficiency virus 1, clinical isolate 97 TH-NP1525, CEMx174 5.25M7, 96 h
[4] = test system: Human immunodeficiency virus 1; assay: Antiviral activity against HIV-1 clinical isolate X4-89BZ167 infected in human CEMx174 5.25M7 cells assessed as reduction in p24 antigen level measured after 4 days by ELISA; assay type: functional, organism-based; conditions: Human immunodeficiency virus 1, clinical isolate X4-89BZ167, CEMx174 5.25M7, 96 h
[5] = target: Envelope glycoprotein gp160 (Human immunodeficiency virus 1) (UniProt Q72502); assay: Binding affinity to HIV1 GP41 using GP41 NHR derived N39 peptide assessed as binding constant by isothermal titration calorimetry
[6] = target: Envelope glycoprotein gp160 (Human immunodeficiency virus 1) (UniProt Q72502); assay: Binding affinity to HIV1 GP41 using GP41 NHR derived N39 peptide at 100 uM incubated for 30 mins by PAGE gel electrophoresis analysis
[7] = test system: Human immunodeficiency virus 1; assay: Antiviral activity against HIV-1 clinical isolate R5-J32228M4 infected in human CEMx174 5.25M7 cells assessed as reduction in p24 antigen level measured after 4 days by ELISA; assay type: functional, organism-based; conditions: Human immunodeficiency virus 1, clinical isolate R5-J32228M4, CEMx174 5.25M7, 96 h
[8] = target: Envelope glycoprotein gp160 (Human immunodeficiency virus 1) (UniProt Q72502); assay: Binding affinity to HIV1 GP41 using GP41 NHR derived N39 peptide assessed as change in entropy by isothermal titration calorimetry
[9] = target: Envelope glycoprotein gp160 (Human immunodeficiency virus 1) (UniProt Q72502); assay: Binding affinity to HIV1 GP41 using GP41 NHR derived N39 peptide assessed as change in enthalpy by isothermal titration calorimetry
[10] = target: C-C chemokine receptor type 5 (Homo sapiens, UniProt P51681); assay: Antagonist activity at CCR5 (unknown origin) expressed in HEK293 cells co-expressing Galpha16 assessed as intracellular calcium change incubated for 60 mins by Fluo-4 AM calcium flux based FLIPR assay; assay type: functional, cell-based
C-C chemokine receptor type 5, sequence (P51681 whole entry): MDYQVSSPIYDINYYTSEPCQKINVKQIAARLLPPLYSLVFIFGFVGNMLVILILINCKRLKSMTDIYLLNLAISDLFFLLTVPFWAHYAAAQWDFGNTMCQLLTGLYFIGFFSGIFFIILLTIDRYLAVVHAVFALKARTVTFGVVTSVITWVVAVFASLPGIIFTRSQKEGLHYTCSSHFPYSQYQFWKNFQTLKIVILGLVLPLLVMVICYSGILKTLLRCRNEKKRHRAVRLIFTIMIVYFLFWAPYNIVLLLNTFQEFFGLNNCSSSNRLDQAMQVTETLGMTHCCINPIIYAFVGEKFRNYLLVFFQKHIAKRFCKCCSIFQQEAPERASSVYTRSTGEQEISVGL

[11] = test system: Human immunodeficiency virus 1; assay: Antiviral activity against HIV-1 clinical isolate R5-91US-4 infected in human CEMx174 5.25M7 cells assessed as reduction in p24 antigen level measured after 4 days by ELISA; assay type: functional, organism-based; conditions: Human immunodeficiency virus 1, clinical isolate R5-91US-4, CEMx174 5.25M7, 96 h
[12] = target: Envelope glycoprotein gp160 (Human immunodeficiency virus 1) (UniProt Q72502); assay: Binding affinity to HIV1 GP41 using GP41 NHR derived N39 peptide assessed as melting temperature incubated for 30 mins by circular dichroism spectroscopy
[13] = test system: Human immunodeficiency virus 1; assay: Antiviral activity against HIV-1 Bal-R5 infected in human CEMx174 5.25M7 cells assessed as reduction in p24 antigen level measured after 4 days by ELISA; assay type: functional, organism-based; conditions: Human immunodeficiency virus 1, Bal-R5, CEMx174 5.25M7, 96 h
[14] = Proteolytic stability in rat kidney incubated upto 240 mins by RP-UHPLC analysis; assay type: ADME, tissue-based; conditions: 4 h

| Compound | EC50 [2] [nM] | EC50 [3] [nM] | EC50 [4] [nM] | EC50 [7] [nM] | IC50 [10] [nM] | EC50 [11] [nM] | EC50 [13] [nM] | also measured |
| --- | --- | --- | --- | --- | --- | --- | --- | --- |
| enfuvirtide | 24.6 | 2.54 | 48.2 |  |  |  |  | remaining at 4 h [1]: 45% |
| CC[C@H](C)[C@H](NC(C)=O)C(=O)N[C@@H](CCC(=O)O)C(=O)N[C@@H](CCC(=O)O)C(=O)N[C@@H](CC(C)C)C(=O)N[C@H](C(=O)N[C@@H](CCCNC(=N)N)C(=O)N[C@@H](C)C(=O)N[C@@H](C)C(=O)N[C@@H](CCC(N)=O)C(=O)N[C@@H](CCC(=O)O)C(=O)N[C@@H](CCC(N)=O)C(=O)N[C@@H](CCC(N)=O)C(=O)N[C@@H](CCCNC(=N)N)C(=O)N[C@@H](CCCCN)C(=O)N[C@@H](CC(N)=O)C(=O)N[C@@H](CCC(=O)O)C(=O)N[C@@H](CCC(=O)O)C(=O)N[C@@H](C)C(=O)N[C@@H](CC(C)C)C(=O)N[C@@H](CCCNC(=N)N)C(=O)N[C@@H](CCC(=O)O)C(=O)N[C@@H](CC(C)C)C(=O)N[C@@H](CCCCNC(=O)CCOCCOCCOCCOCCOCCOCCOCCOCCOCCOCCOCCOCCNC(=O)c1ccc(S(=O)(=O)NC2CC3CCC(C2)N3CCCN(C(=O)C2CCN(C(C)=O)CC2)c2ccc(C)c(Cl)c2)cc1)C(N)=O)[C@@H](C)CC (stereo not given in full) (Ac-IEELIRAAQEQQRKNEEALRELK([PEG12-X2])-NH2) | 1.24 | 0.99 | 2.97 | 14.8 | 10.3 | 1.01 | 0.16 | K [5]: 1.97 10^5/M; Activity [6]: Active; remaining at 4 h [1]: > 72%; deltaS [8]: -27.3 cal/mol/deg; deltaH [9]: -1.5 10^4cal/mol; Tm [12]: 56 °C; Stability [14]: Stable |
| CC[C@H](C)[C@H](NC(C)=O)C(=O)N[C@@H](CCC(=O)O)C(=O)N[C@@H](CCC(=O)O)C(=O)N[C@@H](CC(C)C)C(=O)N[C@H](C(=O)N[C@@H](CCCNC(=N)N)C(=O)N[C@@H](C)C(=O)N[C@@H](C)C(=O)N[C@@H](CCC(N)=O)C(=O)N[C@@H](CCC(=O)O)C(=O)N[C@@H](CCC(N)=O)C(=O)N[C@@H](CCC(N)=O)C(=O)N[C@@H](CCCNC(=N)N)C(=O)N[C@@H](CCCCN)C(=O)N[C@@H](CC(N)=O)C(=O)N[C@@H](CCC(=O)O)C(=O)N[C@@H](CCC(=O)O)C(=O)N[C@@H](C)C(=O)N[C@@H](CC(C)C)C(=O)N[C@@H](CCCNC(=N)N)C(=O)N[C@@H](CCC(=O)O)C(=O)N[C@@H](CC(C)C)C(=O)N[C@@H](CCCCNC(=O)CCOCCOCCOCCOCCOCCOCCOCCOCCOCCOCCOCCOCCNC(=O)COCC(=O)N1CCC(C(=O)N(CCCN2CCN(Cc3ccc(F)cc3)CC2)c2ccc(C)c(Cl)c2)CC1)C(N)=O)[C@@H](C)CC (Ac-IEELIRAAQEQQRKNEEALRELK([PEG12-X3])-NH2) |  |  |  |  |  |  | 6.26 |  |
| CC[C@H](C)[C@H](NC(C)=O)C(=O)N[C@@H](CCC(=O)O)C(=O)N[C@@H](CCC(=O)O)C(=O)N[C@@H](CC(C)C)C(=O)N[C@H](C(=O)N[C@@H](CCCNC(=N)N)C(=O)N[C@@H](C)C(=O)N[C@@H](C)C(=O)N[C@@H](CCC(N)=O)C(=O)N[C@@H](CCC(=O)O)C(=O)N[C@@H](CCC(N)=O)C(=O)N[C@@H](CCC(N)=O)C(=O)N[C@@H](CCCNC(=N)N)C(=O)N[C@@H](CCCCN)C(=O)N[C@@H](CC(N)=O)C(=O)N[C@@H](CCC(=O)O)C(=O)N[C@@H](CCC(=O)O)C(=O)N[C@@H](C)C(=O)N[C@@H](CC(C)C)C(=O)N[C@@H](CCCNC(=N)N)C(=O)N[C@@H](CCC(=O)O)C(=O)N[C@@H](CC(C)C)C(=O)N[C@@H](CCCCNC(=O)CCOCCOCCOCCOCCOCCOCCOCCOCCOCCOCCOCCOCCOCCOCCOCCOCCOCCOCCOCCOCCOCCOCCOCCOCCNC(=O)c1ccc(CC2CCN(CCCN(C(=O)C3CCN(C(C)=O)CC3)c3ccc(C)c(Cl)c3)CC2)cc1)C(N)=O)[C@@H](C)CC (Ac-IEELIRAAQEQQRKNEEALRELK([PEG24-X1])-NH2) |  |  |  |  |  |  | 0.26 |  |
| CC(=O)N1CCC(C(=O)N(CCCN2CCC(Cc3ccc(C(N)=O)cc3)CC2)c2ccc(C)c(Cl)c2)CC1 | > 300 | > 300 | > 300 | 161 | 0.83 | 12.1 | 9.03 |  |
| CC[C@H](C)[C@H](NC(=O)[C@H](CCCCN)NC(=O)[C@H](CCC(N)=O)NC(=O)[C@H](CCC(=O)O)NC(=O)[C@H](Cc1c[nH]c2ccccc12)NC(C)=O)C(=O)N[C@@H](CCC(=O)O)C(=O)N[C@@H](CCC(=O)O)C(=O)N[C@@H](CC(C)C)C(=O)N[C@@H](CC(C)C)C(=O)N[C@@H](CCCCN)C(=O)N[C@@H](CCCCN)C(=O)N[C@@H](C)C(=O)N[C@@H](CCC(=O)O)C(=O)N[C@@H](CCC(=O)O)C(=O)N[C@@H](CCC(N)=O)C(=O)N[C@@H](CCC(N)=O)C(=O)N[C@@H](CCCCN)C(=O)N[C@@H](CCCCN)C(=O)N[C@@H](CC(N)=O)C(=O)N[C@@H](CCC(=O)O)C(=O)N[C@@H](CCC(=O)O)C(=O)N[C@@H](CCC(=O)O)C(=O)N[C@@H](CC(C)C)C(=O)N[C@@H](CCCCN)C(=O)N[C@@H](CCCCN)C(=O)N[C@@H](CC(C)C)C(=O)N[C@@H](CCC(=O)O)C(=O)N[C@@H](CCCCN)C(=O)N[C@@H](CCCCNC(=O)CCOCCOCCOCCOCCNC(=O)c1ccc(CC2CCN(CCCN(C(=O)C3CCN(C(C)=O)CC3)c3ccc(C)c(Cl)c3)CC2)cc1)C(N)=O (Ac-WEQKIEELLKKAEEQQKKNEEELKKLEKK([PEG4-X1])-NH2) |  |  |  |  |  |  | 1.11 |  |
| Ac-IEELIRAAQEQQRKNEEALREL-NH2 | 76.5 | 3.7 | 63.1 | > 250 | > 10000 | 275 | 4.47 | K [5]: 8.29 10^5/M; deltaS [8]: -6.92 cal/mol/deg; deltaH [9]: -1 10^4cal/mol |
| CC[C@H](C)[C@H](NC(=O)[C@H](CCCCN)NC(=O)[C@H](CCC(N)=O)NC(=O)[C@H](CCC(=O)O)NC(=O)[C@H](Cc1c[nH]c2ccccc12)NC(C)=O)C(=O)N[C@@H](CCC(=O)O)C(=O)N[C@@H](CCC(=O)O)C(=O)N[C@@H](CC(C)C)C(=O)N[C@@H](CC(C)C)C(=O)N[C@@H](CCCCN)C(=O)N[C@@H](CCCCN)C(=O)N[C@@H](C)C(=O)N[C@@H](CCC(=O)O)C(=O)N[C@@H](CCC(=O)O)C(=O)N[C@@H](CCC(N)=O)C(=O)N[C@@H](CCC(N)=O)C(=O)N[C@@H](CCCCN)C(=O)N[C@@H](CCCCN)C(=O)N[C@@H](CC(N)=O)C(=O)N[C@@H](CCC(=O)O)C(=O)N[C@@H](CCC(=O)O)C(=O)N[C@@H](CCC(=O)O)C(=O)N[C@@H](CC(C)C)C(=O)N[C@@H](CCCCN)C(=O)N[C@@H](CCCCN)C(=O)N[C@@H](CC(C)C)C(=O)N[C@@H](CCC(=O)O)C(=O)N[C@@H](CCCCN)C(=O)N[C@@H](CCCCNC(=O)c1ccc(CC2CCN(CCCN(C(=O)C3CCN(C(C)=O)CC3)c3ccc(C)c(Cl)c3)CC2)cc1)C(N)=O (Ac-WEQKIEELLKKAEEQQKKNEEELKKLEKK(X1)-NH2) |  |  |  |  |  |  | 1.75 |  |
| Ac-WEQKIEELLKKAEEQQKKNEEELKKLEK-NH2 |  |  |  |  |  |  | 2.45 |  |
